Calls of active or inactive are those of the source.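 The calls were made as follows: active = compounds giving half or more protection of infected cells from virus-caused growth loss, again on retest; inactive = the rest.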 Where a SMILES comes first, the peptide text is derived from it. Bridges are numbered along the chain shown (N, C = ends). [ ]: non-standard residue; d: D form. The star is where a group is joined. ξ: configuration not given here. X16 = O=C(/C=C/C=C/C=C/C=C/C=C/C(=O)*)NC1=C(O)CCC1=O; NMeF = CN[CH](Cc1ccccc1)C(=O)O; NMeV = CN[CH](C(=O)O)C(C)C; NMeA = CN[C@@H](C)C(=O)O; ξF = NC(Cc1ccccc1)C(=O)O; Boc = CC(C)(C)OC(=O)*; OBn = c1ccc(CO*)cc1; ξA = CC(N)C(=O)O
System: CEM cells HIV-1 protection, formazan growth assay
Assay: NCI AIDS Antiviral Assay
Settings: for IC50: measured here: growth of uninfected CEM cells
In short: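 Steps: treat uninfected and HIV-1-infected human CEM cells at five drug levels; quantify growth by soluble formazan; retest any compound reaching 50% protection; classify actives from the retest.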

| SMILES | EC50 | IC50 | outcome |
| --- | --- | --- | --- |
| COCC(=O)OC1CCn2c1nc1c2C(=O)C(C)=C(NC(C)=O)C1=O (centres undefined) | > 200 µM | 1.26 µM | – |
| Cc1ccc(-n2c(=S)n(-c3ccccc3C)c3nc4ccccc4nc2/c3=N\Nc2ccccc2)cc1 | > 200 µM | 123 µM | – |
| N.N.N.N.[Co+3].[N-]=[N+]=[N-].[N-]=[N+]=[N-].[N-]=[N+]=[N-] | – | – | inactive |
| c1ccc(C[n+]2ccc3c(c2)CCCC3)cc1 | > 200 µM | 40.7 µM | – |
| CCOC(=O)C(C)(C)Oc1ccc(N=[N+]=[N-])cc1 | > 200 µM | > 200 µM | – |
| Cc1cnoc1NC1=CC(=O)C(=O)c2ccccc21 | > 200 µM | 26.3 µM | – |
| O=C(O)C(Cc1ccc2c(c1)CCC2)(Cc1ccc2c(c1)CCC2)C(=O)O | > 200 µM | > 200 µM | – |
| C[N+]1(CC(O)(O)C(F)F)CCOCC1 | > 200 µM | > 200 µM | – |
| Cc1cccc(NC(=O)c2cc3cc(N=Nc4ccccc4Cl)ccc3oc2=O)c1 | > 24 µM | > 24 µM | – |
| O=[N+]([O-])c1cc(Cl)c(O)c(N=Nc2cc(S(=O)(=O)O)c3cccc4c3c2N=NN4)c1 | > 91.2 µM | 51.3 µM | – |
| c1csc(-c2nn3c(C45CC6CC(CC(C6)C4)C5)nnc3s2)c1 | > 200 µM | > 200 µM | – |
| c1ccc(C2CCCNCC2)cc1 (centres undefined) | – | – | inactive |
| CSc1nnc2nc[nH]n12 | > 200 µM | > 200 µM | – |
| COCCOC(=O)C1=C(O)c2ccccc2S(=O)(=O)N1C | > 794 µM | 562 µM | – |
| CC(C)C(NC(=O)OC(C)(C)C)C(=O)N(C)C(Cc1ccccc1)C(=O)N(C)C(C(=O)N(C)C(C(=O)OCc1ccccc1)C(C)C)C(C)C (centres undefined) (Boc-V[NMeF][NMeV][NMeV]-OBn; configuration not given here) | > 200 µM | > 200 µM | – |
| O/N=C1/CCCc2nonc21 | > 200 µM | > 200 µM | – |
| COC(=O)c1nc(N)nc(C(=O)OC)c1C(=O)c1ccccc1 | > 60.3 µM | > 60.3 µM | – |
| C[C@]12CCc3nn(-c4ccccc4)nc3C1CC[C@@H]1C2CC[C@]2(C)NC(=O)CCC12 (some centres undefined) | > 23.4 µM | > 23.4 µM | – |
| CCOC(=O)[C@H]1Nc2ccc([N+](=O)[O-])cc2C2c3ccccc3CC21 (some centres undefined) | > 11.2 µM | > 11.2 µM | – |
| CC(=O)NC(CCC(=O)c1ccc(Oc2ccccc2)cc1)C(=O)O (centres undefined) | > 200 µM | > 200 µM | – |
| CC1NC(=O)[C@H](C)N(C)C(=O)[C@@H]2CCCN2C(=O)[C@@H](NC(=O)C(Cc2ccccc2)NC(=O)/C=C/C=C/C=C/C=C/C=C/C(=O)NC2=C(O)CCC2=O)COC(=O)[C@@H]2CCCN2C1=O (some centres undefined) (X16-[ξF]SP[NMeA][ξA]P; ester 2-C) | > 151 µM | > 151 µM | – |
| O=C(COc1ccc(Br)cc1Br)N1N=C(c2ccc([N+](=O)[O-])o2)CC1(O)c1ccccc1 (centres undefined) | > 6.61 µM | > 6.61 µM | – |

| SMILES | EC50 | IC50 | outcome |
| --- | --- | --- | --- |
| OCC1(CO)COC2(CCCCC2)N1 | > 1230 µM | > 1230 µM | – |
| N=C1N=Nc2nc(C(C(=O)c3cccc4ccccc34)c3nc4n(c3O)C(=N)N=N4)c(O)n21 (centres undefined) | > 200 µM | 117 µM | – |
| O=S(=O)(O)c1ccc(Sc2ccc(S(=O)(=O)O)cc2)cc1 | > 631 µM | > 631 µM | – |
| Cc1noc(C)c1C1=CCCCc2ccccc21 | > 30.2 µM | > 30.2 µM | – |
| N#Cc1ccsc1Nc1ccccc1[N+](=O)[O-] | 95.5 µM | > 200 µM | – |
| CC(O)(C#N)CC(O)(C(F)(F)Cl)C(F)(F)Cl (centres undefined) | 195 µM | > 200 µM | – |
| CC1OS(=O)(=O)CS(=O)(=O)OC1C (centres undefined) | > 1070 µM | 1020 µM | – |
| O=C(NCCNCCNC(=O)C(F)(F)F)C(F)(F)F | > 200 µM | > 200 µM | – |
| O=c1nc2n(c3nsnc13)CCO2 | > 132 µM | > 132 µM | – |
| COc1ccc(S(=O)(=O)N/N=C/CN2C(=O)c3ccccc3C2=O)cc1 | > 135 µM | > 135 µM | – |
| NC1CC(=O)c2sc(I)cc21 (centres undefined) | > 200 µM | 102 µM | – |
| COC(=O)C1=C(C(=O)OC)C2C3CC4C(C13)C42 | > 200 µM | > 200 µM | – |
| O=S(=O)(CCCCl)SCCCCl | > 145 µM | 20 µM | – |
| Cn1c(/C=N/NC(=O)c2ccc(C(=O)N/N=C/c3c[n+]4ccccc4n3C)cc2)c[n+]2ccccc12 | 35.5 µM | 43.7 µM | – |
| O=S1(=O)c2ccccc2C(O)(c2ccccc2)c2cc3ccccc3n21 (centres undefined) | > 27.5 µM | > 27.5 µM | – |
| Cc1cc(NC(=O)NC(=O)c2ccccc2[N+](=O)[O-])ccc1Oc1ncc(Cl)cn1 | – | – | inactive |
| COc1ccc2c(c1)OC[C@@H]1c3cc(NC(=O)c4ccccc4)c(OC)cc3N(S(=O)(=O)c3ccccc3)[C@H]21 | > 200 µM | > 200 µM | – |
| O=c1oc2ccccc2c(O)c1/C=N/C(=S)NCc1ccccc1 | > 200 µM | > 200 µM | – |
| CC(C)SSC(=O)N1CCCC1C(=O)O (centres undefined) | > 200 µM | > 200 µM | – |
| Cc1ccccc1N(C)S(=O)(=O)c1ccccc1[N+](=O)[O-] | > 200 µM | 38.9 µM | – |
| O=[N+]([O-])c1cc(S(=O)(=O)c2ccc(Cl)c([N+](=O)[O-])c2)ccc1Cl | > 200 µM | 2.34 µM | – |
| Cn1nc(Cc2ccc(Cl)cc2)n(N)c1=O | > 200 µM | > 200 µM | – |

| SMILES | EC50 | IC50 | outcome |
| --- | --- | --- | --- |
| C[N+]1([O-])CCOCC1 | > 200 µM | > 200 µM | – |
| CC1(C)OCC(C2OC(=O)C(OCc3ccccc3)=C2OCc2ccccc2)O1 (centres undefined) | > 200 µM | > 200 µM | – |
| Cc1ccc(N(C(=O)Nc2ccc(F)c(Cl)c2)C2=NCC(C)S2)cc1 (centres undefined) | > 200 µM | 186 µM | – |
| O=C(/C=C/c1ccccc1O)c1ccccc1O | > 209 µM | > 209 µM | – |
| CN(/N=C/c1ccc(Cl)c(Cl)c1)C1=NCCCCN1 | > 200 µM | 26.3 µM | – |
| COc1nc2nccnc2c(=O)n1C | > 200 µM | > 200 µM | – |
| Cc1ccc(NC(=S)/N=C/C(C(=O)c2ccccc2)=C(\O)c2ccccc2)c(C)c1 | > 200 µM | 31.6 µM | – |
| c1ccc(C2=NCCN2)c(C2=NCCN2)c1 | > 200 µM | > 200 µM | – |
| O=[N+]([O-])c1ccc([As](=O)(O)O)cc1 | > 200 µM | > 200 µM | – |
| CC(NNC(=S)N1CCCC1)c1cccnn1 (centres undefined) | > 200 µM | 0.372 µM | – |
| COC(=O)C1C(NCc2ccccc2)=CC(C)(C)C(C(=O)OC)C1c1ccccc1 (centres undefined) | > 200 µM | 166 µM | – |
| CCCCCCCCCCCCCCCCCCOCC(O)COP(=O)(O)OCC1OC(n2cc(C)c(=O)[nH]c2=O)CC1N=[N+]=[N-] (centres undefined) | > 100 µM | 31.6 µM | – |
| N#CC1Sc2ccccc2-n2cccc21 (centres undefined) | – | – | inactive |
| NS(=O)(=O)c1cc[n+]([O-])c2ccccc12 | > 200 µM | 55 µM | – |
| COC1C(N(C)C)=C(c2ccccc2)C(=O)N2CCc3ccccc3C12 (centres undefined) | > 200 µM | 170 µM | – |
| CCOC(=O)/C(C#N)=C/c1cccc([N+](=O)[O-])c1 | > 21.4 µM | > 21.4 µM | – |
| Cc1ccc(S(=O)(=O)OCC2OC(CCCO)C/C([Si](C)(C)C)=C\CC2Cl)cc1 (centres undefined) | > 8.13 µM | > 8.13 µM | – |
| N#Cc1c(Nc2nc3ccccc3s2)c2ccccc2n2c1nc1ccccc12 | > 200 µM | > 200 µM | – |
| O=C1C=CC(O)=CC1=P(c1ccccc1)(c1ccccc1)c1ccccc1 | > 200 µM | 32.4 µM | – |
| NCC(=O)Nc1ccc(S(=O)(=O)O)c2cc(S(=O)(=O)O)cc(S(=O)(=O)O)c12 | > 200 µM | > 200 µM | – |
| COc1ccc(Nc2cc[nH]c(=O)c2NC(C)=O)cc1 | > 479 µM | > 479 µM | – |
| CC(C)C1=CC2=CC(=O)C3C(C)(C)CCCC3(C)C2=C(O)C1=O (centres undefined) | > 20 µM | 4.07 µM | – |

| SMILES | EC50 | IC50 | outcome |
| --- | --- | --- | --- |
| C/C(=N\NC(=O)/C(C#N)=C\c1ccc(N(CCC#N)CCC#N)cc1)c1ccccc1 | – | – | inactive |
| CNc1ccc2[nH]c(=O)ccc2c1[N+](=O)[O-] | > 12 µM | > 12 µM | – |
| CC(=O)Nc1cccc(C[P+](c2ccccc2)(c2ccccc2)c2ccccc2)c1 | > 200 µM | 91.2 µM | – |
| CCOC(=O)CCC(NC(=O)c1ccc(N=Cc2nc3cc(C(F)(F)F)ccc3nc2-c2ccccc2)cc1)C(=O)OCC (centres undefined) | > 5.89 µM | > 5.89 µM | – |
| CCOC(=O)Nn1c(C)nnc1-c1ccccc1 | > 200 µM | > 200 µM | – |
| Cc1nc2c(ccc3c(C)c(C)c(C)nc32)c(C)c1C.Cc1nc2c(ccc3c(C)c(C)c(C)nc32)c(C)c1C.O=C1OC(C(O)C[O-])C(O)=C1O.[Cu+] | > 12.6 µM | 0.692 µM | – |
| Cc1c(C(=O)C/C(=N\O)C(=O)Nc2cc(Cl)c(Cl)cc2Cl)[n+](=O)c2ccccc2n1[O-] | > 14.8 µM | > 14.8 µM | – |
| O=[N+]([O-])/C(C(Cl)=C(Cl)Cl)=C1\NCCS1 | > 200 µM | > 100 µM | – |
| COc1ccc(C2=Cc3nc2c(-c2ccccc2)c2ccc([nH]2)c(-c2ccccc2)c2nc(c(-c4ccccc4)c4ccc([nH]4)c3-c3ccccc3)C=C2)cc1 | > 100 µM | > 100 µM | – |
| COc1nc(N)c(N=O)c(OCc2ccccc2)n1 | > 200 µM | 3.98 µM | – |
| C=CCOC1=C2CC[C@H](O)[C@@]2(C)CCC1=O | – | – | inactive |
| O=c1[nH]c2ccccc2c(=O)n1/N=C\c1ccc([N+](=O)[O-])cc1 | > 200 µM | > 200 µM | – |
| O=C1CCCn2c(nc3ccccc32)N1 | > 200 µM | > 200 µM | – |
| CCC(C)C(NC(=O)C(CCCN=C(N)N)NC(=O)C(CC(N)=O)NC(=O)C(Cc1cnc[nH]1)NC(=O)C(N)CC(C)C)C(=O)NC(C(=O)NC(CC(C)C)C(=O)NC(C(=O)NC(Cc1cnc[nH]1)C(=O)O)C(C)O)C(C)CC (centres undefined) (H-LHNRIILTH-OH; configuration not given here) | > 44.7 µM | > 44.7 µM | – |
| O=C1/C(=C/c2ccccc2)CN(C(=O)/C=C/c2ccccc2)C/C1=C\c1ccccc1 | > 100 µM | 14.5 µM | – |
| CC1=NNC(N)=N/C1=C\C(Sc1ccc(Cl)cc1)c1ccc(Cl)cc1Cl (centres undefined) | > 112 µM | 18.6 µM | – |
| Cc1cccc(C)c1NC(=O)C(=O)CC(=O)c1cccc([N+](=O)[O-])c1 | > 525 µM | > 525 µM | – |
| COc1ccc(C2=Nc3cc(C)c(C)cc3NC(c3ccccc3)C2)cc1 (centres undefined) | > 200 µM | 28.8 µM | – |
| CC1=C(C)CS(=O)(=O)N(c2ccccc2)C1 | > 200 µM | > 200 µM | – |
